# Experimental data reported in patent publication US8470779B2, “Catecholamine regulated protein” (CRP40 Inc., priority 2005, dated 2013).
# B1: CRP40 protein: 346 amino acid catecholamine-regulated protein, SEQ ID NO: 8 (protein, listed as Homo sapiens)
# chain: MDSSGPKHLNMKLTRAQFEGIVTDLIRRTIAPCQKAMQDAEVSKSDIGEVILVGGMTRMPKVQQTVQDLFGRAPSKAVNPDEAVAIGAAIQGGVLAGDVTDVLLLDVTPLSLGIETLGGVFTKLINRNTTIPTKKSQVFSTAADGQTQVEIKVCQGEREMAGDNKLLGQFTLIGIPPAPRGVPQIEVTFDIDANGIVHVSAKDKGTGREQQIVIQSSGGLSKDDIENMVKNAEKYAEEDRRKKERVEAVNMAEGIIHDTETKMEEFKDQLPADECNKLKEEISKMRELLARKDSETGENIRQAASSLQQASLKLFEMAYKKMASEREGSGSSGTGEQKEDQKEEKQ
# Key:
# [1] = tested on: human CRP40 expression in DRD2 transfected SH-SY5Y human neuroblastoma cells; assay: Western immunoblotting of BQ/human CRP40 expression in DRD2 transfected SH-SY5Y cells; assay type: cell-based; details: 100 μM; for BQ expression compared to controls: overnight, DA D2 receptor transfected SH-SY5Y cells
# Protocol: The pcDNA 3.1(+) vector was introduced into SH-S Y5 Y cells by lipofection method (Invitrogen Life Science technology. U.S.A.). Briefly, 24 μg of DRD2 plasmid DNA was mixed with 1.5 ml of Opti MEM media and 60 μl of lipofectamine 2000 reagent was added and mixed with 1.5 ml of Opti MEM media and SH-SY5Y cells. Geneticin-resistant clones stably expressing the D2L receptor were screened by a [3H] spirerone-binding assay and was maintained in RPMI medium (RPMI contained 10% fetal bovine serum, 1 mM glutamate, 50 U/ml of penicillin, and 50 U/ml of streptomycin) with 200 μg/ml of geneticin. Cells were grown to confluency (5-6 days following sub-culturing) in fresh RPMI medium.
# SH-SY5Y cells were scraped off and this procedure was repeated a second time. The cells were incubated 5 min, centrifuged at 2000 rpm for 5 min and the supernatant was discarded. The pellet was re-suspended in 0.5 ml 0.35M sucrose buffer (wPMSF), homogenized and centrifuged at 1000 g for 10 min. The supernatant was centrifuged and the pellet was re-suspended in a 0.32M sucrose buffer (wPMSF), homogenized, and centrifuged. The pellet was re-suspended 0.053 ml Tris-EDTA PMSF and labeled as nuclear fraction 1. The supernatant was centrifuged and the resulting supernatant was stored and labeled cytosolic fraction 1. The remaining pellet was re-suspended in 0.150 ml Tris-EDT A-PMSF and labeled mitochondrial fraction 1.
# The cells were exposed to the neurotransmitter and/or the neuroleptic (antipsychotic) and left overnight. Western immunoblotting with BQ primary antibody was performed, followed by immunoblotting with polyclonal conjugated horseradish peroxidase secondary antibody.
# human CRP40 = assay: Immunohistochemistry localization of human CRP40 in post-mortem nucleus accumbens; details: post-mortem NA slide of schizophrenic patient treated with large doses of HAL
# Protocol: Three slides were chosen from the 60 samples generously donated by The Stanley Foundation. The slides consisted of: 1) control; 2) schizophrenia patient-drug free; 3) schizophrenic patient-15000K, HAL-treated. The slides were incubated with 4% formaldehyde and diluted in PBS for 30 min. Immediately following, washed sections 3 times with PBS for 5 min, each time and dried off each slide as close as possible to the tissue and outlined the section with the hydrophobic pen. The sections were then blocked by incubating sections with 3% normal goat serum*(NGS) (diluted in PBS containing 0.6% Triton X-100) for 1 h. Next, incubated slides with primary human CRP40 polyclonal antibody diluted in PBS containing 0.6% Triton X-100 (and 3% NGS if necessary) overnight at 4° C. (wrapped in aluminum foil). The following day, the slides were washed 3 times with PBS for 5 min, each time, and incubated slides with FITC secondary antibody diluted in PBS containing 0.6% Triton X-100 for 4 h. Next, the sections were washed 6 times in PBS and slides were mounted with appropriate cover-slips and fixed with nail polish.
# Three slides containing post mortem brain specimens of the NA were used in immunohistochemistry studies. […] The next day, the slides were analyzed using a confocal microscope (McMaster University).
# [2] = target: T1, recombinant human CRP40 (BQ-fusion protein) (Homo sapiens, UniProt P38646); assay: [3H]-NPA protein-binding assay with BQ-fusion protein; details: 100 μM, third of three NPA entries
# T1 construct: a fragment of 720 base pairs (Genbank #BQ224193) was amplified; GST (Schistosoma japonicum glutathione S-transferase, pGEX-2T) (N); made in house; host or cells: E. coli BL21 (pGEX-2T)
# T1 sequence (P38646 334-578 E571K/D572N/R574P): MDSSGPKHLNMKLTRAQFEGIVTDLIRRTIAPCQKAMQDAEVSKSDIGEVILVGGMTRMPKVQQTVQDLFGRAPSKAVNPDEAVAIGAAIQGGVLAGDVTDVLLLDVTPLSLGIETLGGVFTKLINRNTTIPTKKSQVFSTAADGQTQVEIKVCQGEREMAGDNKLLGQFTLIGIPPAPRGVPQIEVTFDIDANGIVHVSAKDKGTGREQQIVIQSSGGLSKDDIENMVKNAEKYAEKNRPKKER
# Protocol: Briefly, the assays were performed in triplicate and consisted of the following solutions and protocol: 50 mM TRIS, 5.0 mM mgCl2, 1.0 mM EDTA, 0.ImM DTT, 0.ImM PMSF, 100 mg/ml Bacitracin and 5.0 mg/ml soybean trypsin; DA (mw=189.6) was dissolved in 0.1% ascorbic acid; each tube was vortexed briefly and incubated in a shaking water bath at 37° C., for 2 h; receptor binding equipment (Brandel, U.S.A.) washed 3 times with distilled water; then repeated washes in assay buffer, 50 nM TRIS, 1 mM EDTA, pH 7.4; 18 test-tubes were set on the binding platform and fiberglass filter paper was put on the platform. The samples were passed through the filter paper with 3 consecutive washes; placed in the scintillation tubes and 5.0 ml Biodegradable Counting Scintillant was added and radioactive counts were measured (Amersham, U.S.A.).
# The first protein binding study involved [3+H]NPA and 3 different concentrations of displacement molecules (DA, NPA), 100 μM, 10 μM and 1 μM, respectively. Following protein binding, DPM counts were performed in a Beckman scintillation counter.
# [3] = tested on: 6-OHDA lesioned hemi-Parkinson's rat model; assay: Apomorphine-induced turning behaviour after striatal injection; assay type: in vivo; details: for apomorphine-induced rotational symptoms: striatal injection on lesioned side
# From the text: This research study examined the potential of CRP40 as a therapeutic in Parkinson's disease (PD). It has been shown herein that dopamine (DA) can modulate CRP40 expression. Further, knockdown of CRP40 in the medial prefrontal cortex (mPFC) caused deficits in DA-dependant behaviours related to human disease. This study investigated whether the introduction of CRP40 into the lesioned region of a rat model of PD would reduce or reverse symptoms associated with PD compared to control animals. This model is a well-established one in which the nigrostriatal system is hemi-laterally lesioned by injection of the cytotoxin 6-hydroxydopamine (6-OHDA). These animals show phenotypic rotating behaviour as a result of the hemi-lesion.
# (§1) The treatment groups were the following: Group 1 (n=3; males) were hemi-lesioned animals treated with a sham injection (CSF) to the Striatum; Group 2 (n=3; males) were hemi-lesioned animals treated with Mortalin2 plasmid injection to the Striatum; Group 3 (n=3; males) were hemi-lesioned animals treated with CRP40 plasmid injection to the Striatum; Group 4 (n=2; males) were hemi-lesioned animals treated with Mortalin2 protein injection to the Striatum; Group 5 (n=2; males) were hemi-lesioned animals treated with CRP40 protein injection to the Striatum; Group 6 (n=3; males) were controls, non-lesioned, and received a CSF injection to the Striatum.
# Once the animals were comfortable with the experimenter, they were subjected to a series of behavioural tests for baseline measures. In addition to the apomorphine-induced rotation, other tests included prepulse inhibition (PPI) and locomotor activity tests. The apomorphine-induced rotations test involves giving each animal a subcutaneous injection of apomorphine according to body weight. Since the animals are lesioned hemi-laterally at the nigrostriatal pathway, they show compulsive turning behaviour in a direction contra-lateral to the lesion. For this project, there was interest in the number of rotations each animal made in a ten minute testing period. PPI is a test of sensorimotor gating where animals are exposed to a startling acoustic pulse. This pulse, however, follows a subtle pre-pulse which allows for inhibition of the startle response. Locomotor activity test involves cubic chambers lined with infrared sensors that detect any and all movements made by the animal over a three hour testing period. For this experiment “total distance travelled” measurements were of interest.
# Once all baseline data was collected, the rats were placed under gaseous anaesthesia and injected, via cannulae, with one of the five following treatments: CSF sham (Striatal n=3), CRP40 plasmid DNA (Striatal n=3), MOT-2 plasmid DNA (Striatal n=3), CRP40 protein (Striatal n=2), MOT-2 protein (Striatal n=2). […]
# [4] = tested on: 6-OHDA lesioned hemi-Parkinson's rat model; assay: HPLC of DA levels in SN and striatum; assay type: in vivo; details: striatal-injected rats
# From the text: as §1
# Once all baseline data was collected, the rats were placed under gaseous anaesthesia and injected, via cannulae, with one of the five following treatments: CSF sham (Striatal n=3), CRP40 plasmid DNA (Striatal n=3), MOT-2 plasmid DNA (Striatal n=3), CRP40 protein (Striatal n=2), MOT-2 protein (Striatal n=2).
# After recovery from surgery, all animals were again tested using the same behavioural methods for post-intervention measures. PPI and locomotor activity were tested at 7 and 14 days post-injection, and apomorphine-induced rotation was tested at various time points between days 2 and 14 post-injection. On day 15 post-injection, all rats were sacrificed. […]
molecule,measurement,setting,value
"NCCc1ccc(O)c(O)c1 [DA, dopamine]",human CRP40 protein expression in the nuclear fraction relative to control cells,[1]; SH-SY5Y nuclear fraction,significant increase
same,BQ expression compared to controls,[1],significant increase
"O=C(CCCN1CCC(O)(c2ccc(Cl)cc2)CC1)c1ccc(F)cc1 [Haloperidol, haloperidol]",BQ expression compared to controls,[1],significant increase
same,localization of human CRP40 antibody staining,human CRP40,located almost exclusively within the nucleus
"CCCN1CCc2cccc3c2[C@H]1Cc1ccc(O)c(O)c1-3 [NPA, N-propylnorapomorphine]",amount of displacement of [3H]NPA,[2],64.3%
B1,apomorphine-induced rotational symptoms,[3]; day 10 post-injection,alleviated
same,apomorphine-induced rotational symptoms,[3]; day 14 post-injection,beginning to increase again
same,apomorphine-induced rotational symptoms,[3]; days 4 and 7 post-injection,reversal of rotational symptoms
same,"apomorphine-induced rotational symptoms, overall","[3]; striatal injection, no time point stated",completely reversed
same,levels of DA in the SN & striatum (HPLC),[4],increase in dopamine concentration at both the SN and the striatum
